{"source": "paper PMC5382891", "about": "(Scientific Reports, 2017)", "key": {"[1]": {"molecular_target": "T1, human recombinant NOP receptor (Homo sapiens, UniProt P41146)", "T1 construct": "expressed in transfected cells", "T1 sequence (P41146 whole entry)": "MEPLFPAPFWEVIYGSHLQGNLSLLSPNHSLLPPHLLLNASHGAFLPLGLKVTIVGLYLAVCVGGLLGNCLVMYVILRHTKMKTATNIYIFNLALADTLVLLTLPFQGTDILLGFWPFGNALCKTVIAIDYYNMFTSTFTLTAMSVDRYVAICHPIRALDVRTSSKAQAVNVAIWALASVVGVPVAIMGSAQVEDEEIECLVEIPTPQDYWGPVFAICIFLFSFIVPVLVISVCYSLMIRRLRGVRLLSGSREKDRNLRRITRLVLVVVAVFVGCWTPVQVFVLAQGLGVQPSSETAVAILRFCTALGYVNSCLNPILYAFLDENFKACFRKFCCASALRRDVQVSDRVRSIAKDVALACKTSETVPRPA", "experiment": "cell-based", "type": "cell-based"}, "mouse vas deferens": {"test_system": "mouse vas deferens", "experiment": "electrically stimulated mouse vas deferens bioassay", "conditions": "Table 2; for mVD Emax ± SEM: percent of the control twitch, mean ± SEM of at least 4 separate experiments, footnote a: concentration response curve incomplete due to low potency", "experimental": "The experiments were performed on the mouse vas deferens (mVD). The tissues were taken from male CD-1 mice 16–18 g (Harlan, Ud, Italy). Mice were housed in 425 × 266 × 155 mm cages (Techniplast, Mi, Italy), 8 per cage, all under standard conditions (22 °C, 55% humidity, 12 h light/dark cycle, light on at 7:00 h), with food for mice (4RF, Mucedola, Mi, Italy) and water ad libitum. A mouse red house (Tecniplast, Va, Italy) and nesting materials were present in each cage for mice. The day of the experiment the animals were sacrificed with CO2 overdose. The experimental protocol was approved by the Ethical Committee for the Use of Laboratory Animals of the University of Ferrara and by the Italian Ministry of Health (authorization number 9927, 19/04/2013). The animals were treated in accordance with the European Communities Council directives (2010/63/EU) and national regulations (D.L. 26/2014). Bioassay experiments were performed as previously described. The tissues were suspended in 5 ml organ bath containing Krebs solution (composition in mM: NaCl 118.5, KCl 4.7, KH2PO4 1.2, NaHCO3 25, CaCl2 2.5, glucose 10). The Krebs solution was oxygenated with 95% O2 and 5% CO2. The temperature was set at 33 °C. At resting tension 0.3 g was applied to the mVD. […] The electrically evoked contractions were measured isotonically by means of Basile strain gauge transducers (Basile 7006; srl Ugo Basile, Varese, Italy) and recorder with a computer – based acquisition system (Power Lab 8, ADInstruments, Colorado Springs, USA). […]\nThe pharmacological terminology adopted in this paper is consistent with IUPHAR recommendations. All data are expressed as the mean ± standard error of the mean (SEM) of n experiments. […] In calcium mobilization experiments, maximum change in fluorescence, expressed as percent over the baseline fluorescence, was used to determine agonist response. Electrically stimulated tissues data are expressed as % of the control twitch induced by electrical field stimulation. […]"}}, "note": "Read-outs that look alike come from different tables or passages of the source. Ends that are not written are not given here.", "data": [{"substance": "FGGFTGARKSAR-NH2 [compound 10, N/OFQ(1-12)-NH2] [listing 1 of 2 here]", "values": [{"measurement": "EC50", "setting": "[1]; Ca2+ mobilization pEC50 (CL95%)", "result": 0.2, "unit": "nM"}]}, {"substance": "FGGFTGARKSAR-NH2 [compound 10, N/OFQ(1-12)-NH2] [listing 2 of 2 here]", "values": [{"measurement": "Emax", "setting": "[1]; CHO, read-out: Ca2+ mobilization Emax ± SEM, SEM", "result": "204 ± 16", "unit": "%"}]}, {"substance": "N/OFQ(1-11)-NH2 (FGGFTGARKSA-NH2; UniProt Q13519 130-140, looked up, fragment) [compound 12]", "values": [{"measurement": "Ca2+ mobilization Emax ± SEM", "setting": "[1]; SEM", "result": "182 ± 34", "unit": "%"}, {"measurement": "mVD Emax ± SEM", "setting": "mouse vas deferens; SEM", "result": "65 ± 5", "unit": "%^a"}]}, {"substance": "N/OFQ(2-12)-NH2 [compound 14]", "values": [{"measurement": "Ca2+ mobilization Emax ± SEM", "setting": "[1]", "result": "Inactive"}, {"measurement": "Ca2+ mobilization pEC50 (CL95%)", "setting": "[1]", "result": "Inactive"}, {"measurement": "mVD pEC50 (CL95%)", "setting": "mouse vas deferens; electrically stimulated mouse vas deferens, Krebs solution, 33 °C, cumulative concentration response curves, mean of at least 4 separate experiments, CL95% in brackets, * P < 0.05 versus N/OFQ(1-13)-NH2", "result": "inactive"}, {"measurement": "mVD Emax ± SEM", "setting": "mouse vas deferens", "result": "inactive"}]}, {"substance": "compound 15: heterodimeric derivative N/OFQ(1-12)-N/OFQ(2-12), 2,2′-disulfanediyldiethanamine spacer (chain 1 FGGFTGARKSAR; chain 2 GGFTGARKSAR)", "values": [{"measurement": "Ca2+ mobilization pEC50 (CL95%)", "setting": "[1]", "result": "9.49 (9.07–9.91)"}]}]}
